Reference: patent publication US20190000908A1, “COMPOSITIONS AND METHODS FOR TREATING AND/OR PREVENTING A URINARY TRACT INFECTION” (priority 2017, published 2019)

Experiments:
Format in all cases: cell-based
E. coli NCTC 9775 = test: Human Red Blood Cell (HRBC) agglutination assay, E. coli NCTC 9775; details: strain 9775, FIG. 1 Raw C
Description: (§1) A whole blood (type 0 positive) was acquired from a volunteer and stored with EDTA at 4° C. Before the agglutination experiment, the red blood cells were isolated by centrifugation at 800 rpm for 15 minutes (in order to remove the platelets and plasma). The resulting red blood cells were suspended in phosphate buffered (PBS, pH 7.4) and washed three times to remove EDTA and other blood components, after each wash the supernatant was removed and the remaining cells were resuspended in PBS. Finally, RBC were diluted in 10 ml of PBS to create 1% RBC suspension that was stored at 4° C. until use.
(§2) Standard E. coli strains (NCTC 4169 and NCTC 9775) were grown on TSA plates for 24 h at 37° C. Colony was collected with sterile culturing needle and cells suspended in PBS and washed three times with PBS, after each wash the supernatant was removed. The cells were resuspended in PBS at final concentration of 10^9 cells/ml and stored at 4° C. for an hour.
(§3) The experiments were conducted in round bottom 96-well plate, with final volume 200 μl, made of 98 μl of the 1% RBC suspension, 2 μl extract (or PBS) and 100 μl bacterial suspension or PBS (as control). Extract were prepared in advance at different concentrations in PBS (10 mg/ml, 3 mg/ml, 1 mg/ml, 50 μg/ml and 1 μg/ml). […]

E. coli NCTC 4169 = test: Human Red Blood Cell (HRBC) agglutination assay, E. coli NCTC 4169; details: strain 4169, FIG. 1 Raw C
Description: as §1, §2, §3

[1] = system: E. coli strains (NCTC 4169 and NCTC 9775); test: Human Red Blood Cell (HRBC) agglutination assay, strain not specified for the result; details: human RBC + E. coli; strain not stated
Description: as §1, §2, §3

O=C[C@@H](O)[C@@H](O)[C@H](O)[C@H](O)CO [D-mannose, D-Mannose]
D-mannose sensitivity of bacteria-induced RBC agglutination (E. coli NCTC 9775): D-mannose sensitive | D-mannose sensitivity of bacteria-induced RBC agglutination (E. coli NCTC 4169): not D-mannose sensitive | concentration that induced agglutination prevention/inhibition [1]: 5 to 10 mg/mL
